Read-outs that look alike come from different tables or passages of the source. Numbered stars: 1 amine (or outer) side, 2 acyl side, 3 side chain; on linkers, the order of the positions; unused ones are H or OH. Bridge positions count the residues as written; N and C are the ends. Square brackets hold non-standard residues; d marks the D form. Peptide text beside a SMILES is read from it. * marks the point of attachment. C20 diacid = O=C(O)CCCCCCCCCCCCCCCCCCC(=O)*; γGlu = O=C(O)[C@H](CCC(=O)[*:2])N[*:1]; 4Pal = N[C@@H](Cc1ccncc1)C(=O)O; Aib = CC(C)(N)C(=O)O; CH2 = C([*:1])[*:2]
Experiments:
human NPRA = target: T1, human NPRA (Homo sapiens, UniProt P16066); assay: Human NPRA cGMP activity assay (HTRF) in HEK293 cells overexpressing NPRA; type: cell-based
T1 construct: Full-Length cDNA Cloning and Generation of Cell Lines Overexpressing Natriuretic Peptide Receptors (NPRs); expressed in transfected cells; host or cells: Jump-in T-Rex HEK293 cells, pJTI R4 CMV-TO MCS pA vector, tetracycline induction
T1 sequence (P16066 33-1061): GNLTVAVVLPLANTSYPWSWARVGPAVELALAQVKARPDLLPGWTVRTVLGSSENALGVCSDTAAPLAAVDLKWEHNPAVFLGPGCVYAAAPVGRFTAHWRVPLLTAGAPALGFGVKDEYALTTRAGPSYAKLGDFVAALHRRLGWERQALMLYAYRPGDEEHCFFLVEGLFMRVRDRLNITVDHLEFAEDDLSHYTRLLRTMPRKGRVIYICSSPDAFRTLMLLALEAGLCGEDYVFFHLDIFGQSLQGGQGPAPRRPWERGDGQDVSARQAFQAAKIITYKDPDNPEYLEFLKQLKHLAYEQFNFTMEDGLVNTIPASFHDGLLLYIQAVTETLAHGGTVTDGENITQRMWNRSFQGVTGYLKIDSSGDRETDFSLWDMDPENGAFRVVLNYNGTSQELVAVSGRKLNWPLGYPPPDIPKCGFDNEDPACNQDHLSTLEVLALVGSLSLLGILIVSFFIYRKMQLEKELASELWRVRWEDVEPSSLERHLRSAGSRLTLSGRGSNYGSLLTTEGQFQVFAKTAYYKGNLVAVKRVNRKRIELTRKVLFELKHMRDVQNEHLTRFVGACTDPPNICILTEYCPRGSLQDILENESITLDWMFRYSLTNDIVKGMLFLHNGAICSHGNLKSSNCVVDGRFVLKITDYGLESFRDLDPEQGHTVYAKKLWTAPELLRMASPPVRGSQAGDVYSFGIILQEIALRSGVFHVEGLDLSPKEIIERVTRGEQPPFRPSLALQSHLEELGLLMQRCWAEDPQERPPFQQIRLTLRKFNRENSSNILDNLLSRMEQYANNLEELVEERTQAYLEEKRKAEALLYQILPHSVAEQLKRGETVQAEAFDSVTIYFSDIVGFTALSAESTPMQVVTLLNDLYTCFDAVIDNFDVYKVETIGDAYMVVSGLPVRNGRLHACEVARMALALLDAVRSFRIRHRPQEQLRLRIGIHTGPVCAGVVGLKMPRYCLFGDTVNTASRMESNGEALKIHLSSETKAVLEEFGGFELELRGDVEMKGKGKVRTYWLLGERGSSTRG
Procedure: All sequences were verified by full-length sequencing performed by ACGT DNA Sequencing Services (Wheeling, IL). The target cDNA was cloned into pJTI R4 CMV-TO MCS pA vector and then co-transfected with pJT1R4 Int vector into Jump-in™ T-Rex™ HEK293 cells for mammalian inducible expression using Jump-in™ T-Rex™ HEK293 kit and Lipofectamine LTX and Plus Reagent following manufacturer's protocols, as briefly described below.
Jump-in™ T-Rex™ HEK293 cells were plated in a BioCOAT® poly-D-lysine coated 6-well plate (Becton Dickinson, cat no. 354413) at 1 million cells/well in 2 mL culture medium and incubated for 18 h at 37° C. and 5% CO2 to 50-70% confluence. A cDNA mix was made in a 50 mL tube by adding 1.5 μg target cDNA, 1.5 μg pJT1R4 Int vector, 3 μL Plus Reagent, and 300 μL Opti-MEM I sequentially into the tube. A reagent mix was made in a separate 50 mL tube by adding 7.5 μL Lipofectamine LTX into 300 μL Opti-MEM I. The mixtures were incubated for 5 min at room temperature. The cDNA mix was then transferred into the reagent mix, mixed well, and incubated for additional 30 min at room temperature. A 500 μL of cDNA/Lipofectamine complex was then transferred to the wells of the cell plate in which the culture medium was changed to 2 mL of transfection medium containing DMEM with 4.5 g/L D-glucose supplemented with 10% FBS-HI and 20 mM HEPES. Transfected cells were cultured for 48 h in an incubator at 37° C. and 5% CO2. A subclone or pool from each overexpressing cell line was maintained in culture medium with the addition of 2 mg/mL G418 sulfate for the clone selection based on its built-in resistance to G418 sulfate for at least 3 weeks with medium changed every 2-3 days.
NPRs were overexpressed in T-Rex™ HEK293 cells following the induction with 300 ng/mL tetracycline in culture medium for 48 h. Induced cell lines in an exponential growth phase were treated with 0.05% trypsin-EDTA for a few seconds at room temperature, harvested in cell medium containing FBS to neutralize the trypsin, counted, and cryopreserved at the density of 2 million cells/mL in cell preservation solution containing FBS-HI with 5% DMSO. Cryopreserved cells were stored at −80° C. for a few days prior to transferring to a liquid nitrogen tank. Induced cell lines were then used for suspension assays to measure the activity of polypeptides to stimulate cGMP production in cGMP assays or for the preparation of cell membranes to measure the binding activity of polypeptides in competitive radioligand binding assays, as described below.
Test polypeptides were added starting at 10 μM concentration and at 10-fold decreasing concentrations to obtain 8-point concentration-response curves (i.e., 10 μM to 1 pM). The quantity of cGMP generated was detected using HTRF® technology and normalized to maximum amount produced by 100 nM amidated rat ANP and the minimum amount produced by assay buffer. Detailed steps are outlined below.
Stock solutions of test polypeptides (2 mM) dissolved in DMSO were first diluted 100-fold in assay buffer containing HBSS with Ca^2+ and Mg^2+, 5 mM HEPES, 0.5 mM IBMX, and 0.1% BSA or 0.1% casein (pH 7.4). The polypeptides were further serially diluted in 1:10 dilution steps in assay buffer containing 0.1% BSA or 0.1% casein to generate 8-point 2× working stock solutions ranging from 20 μM to […].
A 10 μL cell suspension containing 4000 cells was plated in Costar® half-area white opaque 96-well plates (Corning, cat no. 3693). Then 10 μL of assay buffer (basal activity), 200 nM of amidated rat ANP (maximum activity) or 2× working stock solutions of test polypeptides were transferred into the plate. Final concentration of DMSO in each well was 0.5%. The plate was shaken for 15 sec and then incubated for 40 min at room temperature.
The cGMP generated was measured using cGMP kit following the manufacturer's directions, as described below.

rat NPRA = target: T2, rat NPRA (Rattus norvegicus, UniProt P18910); assay: Rat NPRA cGMP activity assay (HTRF) in HEK293 cells overexpressing NPRA; type: cell-based; conditions: cGMP Assay (EC50, pM) w/BSA rNPRA, assay buffer with 0.1% BSA
T2 construct: Full-Length cDNA Cloning and Generation of Cell Lines Overexpressing Natriuretic Peptide Receptors (NPRs); expressed in transfected cells; host or cells: Jump-in T-Rex HEK293 cells, pJTI R4 CMV-TO MCS pA vector, tetracycline induction
T2 sequence (P18910 29-1057): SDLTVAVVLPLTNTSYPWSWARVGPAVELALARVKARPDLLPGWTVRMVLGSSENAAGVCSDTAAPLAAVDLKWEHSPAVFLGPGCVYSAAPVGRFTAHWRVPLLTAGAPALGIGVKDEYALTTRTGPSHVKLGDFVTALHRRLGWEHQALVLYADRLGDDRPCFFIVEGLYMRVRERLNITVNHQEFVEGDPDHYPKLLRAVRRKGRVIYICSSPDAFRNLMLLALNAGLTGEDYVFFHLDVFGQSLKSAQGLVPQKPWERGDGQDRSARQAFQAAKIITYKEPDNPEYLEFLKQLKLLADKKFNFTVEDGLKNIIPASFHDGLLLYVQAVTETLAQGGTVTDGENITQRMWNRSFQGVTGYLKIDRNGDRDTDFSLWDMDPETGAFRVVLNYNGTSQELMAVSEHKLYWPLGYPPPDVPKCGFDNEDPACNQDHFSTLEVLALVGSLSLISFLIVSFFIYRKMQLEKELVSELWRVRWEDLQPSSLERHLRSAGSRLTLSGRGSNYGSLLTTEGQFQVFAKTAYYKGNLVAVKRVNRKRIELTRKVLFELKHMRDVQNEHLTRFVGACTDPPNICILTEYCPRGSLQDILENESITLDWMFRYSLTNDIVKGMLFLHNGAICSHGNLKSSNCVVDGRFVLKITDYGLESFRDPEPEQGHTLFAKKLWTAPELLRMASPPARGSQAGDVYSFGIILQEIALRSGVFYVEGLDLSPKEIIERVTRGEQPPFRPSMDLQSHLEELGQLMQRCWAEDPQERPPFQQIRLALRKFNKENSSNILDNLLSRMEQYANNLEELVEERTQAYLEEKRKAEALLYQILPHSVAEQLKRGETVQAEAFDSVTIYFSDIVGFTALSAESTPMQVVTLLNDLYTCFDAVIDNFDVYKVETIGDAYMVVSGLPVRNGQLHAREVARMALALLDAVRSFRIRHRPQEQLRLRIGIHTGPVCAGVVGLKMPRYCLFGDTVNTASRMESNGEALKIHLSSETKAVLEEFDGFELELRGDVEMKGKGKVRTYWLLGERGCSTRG
Procedure, shortened: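 cGMP measured by HTRF and scaled between buffer (minimum) and 100 nM amidated rat ANP (maximum). Polypeptides in 10-fold steps from 10 μM to 1 pM, 0.5% DMSO, 0.5 mM IBMX, 40 min at room temperature, on induced NPRA-overexpressing HEK293 cells.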

Molecule: {C20 diacid-γGlu}-EKEKEKGS[4Pal]RRSSCFGGRIDRIGHQSGLGCPSFRHGGPPS[Aib]KPPPK-NH2 (linker 14-30 via CH2) [Example 68]
- EC50 (human NPRA; assay buffer with 0.1% BSA, read-out: cGMP Assay (EC50, pM) w/BSA hNPRA): 96800 pM

Molecule: CC[C@H](C)[C@@H]1NC(=O)[C@H](CCCNC(=N)N)NC(=O)[C@H](CC(=O)O)NC(=O)[C@H]([C@@H](C)CC)NC(=O)[C@H](CCCNC(=N)N)NC(=O)CNC(=O)CNC(=O)[C@H](Cc2ccccc2)NC(=O)[C@@H](NC(=O)[C@H](CO)NC(=O)[C@H](CO)NC(=O)[C@H](CCCNC(=N)N)NC(=O)[C@H](CCCNC(=N)N)NC(=O)[C@H](Cc2c[nH]cn2)NC(=O)[C@H](CO)NC(=O)CNC(=O)[C@H](CCCCN)NC(=O)[C@H](CCC(=O)O)NC(=O)[C@H](CCCCN)NC(=O)[C@H](CCC(=O)O)NC(=O)[C@H](CCCCN)NC(=O)[C@H](CCC(=O)O)NC(=O)CC[C@H](NC(=O)CCCCCCCCCCCCCCCCCCC(=O)O)C(=O)O)CSSC[C@@H](C(=O)N2CCC[C@H]2C(=O)N[C@@H](CO)C(=O)N[C@@H](Cc2ccccc2)C(=O)N[C@@H](CCCNC(=N)N)C(=O)N[C@@H](Cc2c[nH]cn2)C(N)=O)NC(=O)CNC(=O)[C@H](CC(C)C)NC(=O)CNC(=O)[C@H](CO)NC(=O)[C@H](CCC(N)=O)NC(=O)[C@H](C)NC(=O)CNC1=O [Example 18] ({C20 diacid-γGlu}-EKEKEKGSHRRSSCFGGRIDRIGAQSGLGCPSFRH-NH2; disulfide 14-30)
- EC50 (human NPRA; assay buffer with 0.1% casein, read-out: cGMP Assay (EC50, pM) w/Casein hNPRA): 460 pM

Molecule: CC[C@H](C)[C@@H]1NC(=O)[C@H](CCCNC(=N)N)NC(=O)[C@H](CC(=O)O)NC(=O)[C@H]([C@@H](C)CC)NC(=O)[C@H](CCCNC(=N)N)NC(=O)[C@H](CCCCN)NC(=O)CNC(=O)[C@H](Cc2ccccc2)NC(=O)[C@@H](NC(=O)[C@H](CO)NC(=O)[C@H](CO)NC(=O)[C@H](CCCNC(=N)N)NC(=O)[C@H](CCCNC(=N)N)NC(=O)[C@H](Cc2ccncc2)NC(=O)[C@H](CO)NC(=O)CCOCCOCCOCCOCCOCCOCCOCCOCCOCCOCCOCCOCCOCCOCCOCCOCCOCCOCCOCCOCCOCCOCCOCCOCCNC(=O)CNC(=O)[C@H](CCCCN)NC(=O)[C@H](CCC(=O)O)NC(=O)[C@H](CCCCN)NC(=O)[C@H](CCC(=O)O)NC(=O)[C@H](CCCCN)NC(=O)[C@H](CCC(=O)O)NC(=O)CC[C@H](NC(=O)CCCCCCCCCCCCCCCCCCC(=O)O)C(=O)O)CSCSC[C@@H](C(=O)N2CCC[C@H]2C(=O)N[C@@H](CO)C(=O)N[C@@H](Cc2ccccc2)C(=O)N[C@@H](CCCNC(=N)N)C(=O)N[C@@H](Cc2c[nH]cn2)C(=O)NCC(=O)N[C@@H](CO)C(=O)N2CCC[C@H]2C(=O)N[C@@H](CO)C(=O)N[C@@H](CO)C(=O)NCC(=O)N[C@@H](C)C(=O)N2CCC[C@H]2C(=O)N2CCC[C@H]2C(=O)N2CCC[C@H]2C(=O)N[C@@H](CO)C(N)=O)NC(=O)CNC(=O)[C@H](CC(C)C)NC(=O)CNC(=O)[C@H](CO)NC(=O)[C@H](Cc2ccc(O)cc2)NC(=O)[C@H](Cc2c[nH]cn2)NC(=O)CNC1=O [Example 115]
- EC50 (rat NPRA): 100000 pM

Source: patent publication US20240174727A1, “LONG-ACTING NATRIURETIC PEPTIDES AND USES THEREOF” (Eli Lilly and Company, priority 2022, published 2024)
